Calls of active or inactive are those of the source.
Columns and labels:
[1] = molecular target: T1, Adenosylmethionine-8-amino-7-oxononanoate aminotransferase (Mycobacterium tuberculosis, UniProt P9WQ81); assay: Mycobacterium tuberculosis BioA enzyme inhibitor Measured in Biochemical System Using Plate Reader - 2163-02_Inhibitor_Dose_CherryPick_Activity.; type: functional, Mycobacterium tuberculosis UT205
T1 sequence (P9WQ81 whole entry): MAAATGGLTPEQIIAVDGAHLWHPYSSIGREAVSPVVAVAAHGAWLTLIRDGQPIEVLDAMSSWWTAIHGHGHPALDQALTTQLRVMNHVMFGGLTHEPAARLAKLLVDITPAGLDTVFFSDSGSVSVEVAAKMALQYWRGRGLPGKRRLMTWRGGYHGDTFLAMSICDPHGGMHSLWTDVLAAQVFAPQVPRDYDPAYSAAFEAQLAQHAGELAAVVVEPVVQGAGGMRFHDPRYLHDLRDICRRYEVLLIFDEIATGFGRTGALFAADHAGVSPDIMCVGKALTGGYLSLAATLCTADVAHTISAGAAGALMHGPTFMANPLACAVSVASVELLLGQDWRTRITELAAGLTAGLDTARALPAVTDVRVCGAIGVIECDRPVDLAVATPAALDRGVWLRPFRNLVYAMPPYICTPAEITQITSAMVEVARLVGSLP

[2] = molecular target: T2, Carboxy-terminal domain RNA polymerase II polypeptide A small phosphatase 1 (Homo sapiens, UniProt Q9GZU7); assay: inhibitors of CTDSP1, concentration-response testing, biochemical assay, absorbance-based, actives from ultra-high-throughput screening (AID 540297); type: functional
T2 sequence (Q9GZU7 whole entry): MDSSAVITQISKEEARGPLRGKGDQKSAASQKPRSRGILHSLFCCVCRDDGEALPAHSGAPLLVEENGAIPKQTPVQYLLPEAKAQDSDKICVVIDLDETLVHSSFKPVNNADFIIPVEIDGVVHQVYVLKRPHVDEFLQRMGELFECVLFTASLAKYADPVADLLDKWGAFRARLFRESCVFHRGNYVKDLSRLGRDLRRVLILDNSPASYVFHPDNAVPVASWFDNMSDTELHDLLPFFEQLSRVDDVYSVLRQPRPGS

[3] = NIH-3T3 fibroblast cytotoxicity, dose response, cytotoxicity control, cell-based, fluorescence, Alamar Blue, secondary assay (AID 2327); type: functional;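 also: NIH-3T3 mouse fibroblasts cultured with fluconazole at 8 µg/mL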
[4] = C. albicans growth with fluconazole, confirmation, fluorescence, retest (AID 2467); type: functional, cell-based
[5] = molecular target: T3, Type-1 angiotensin II receptor (Homo sapiens, UniProt P30556); assay: AT1 receptor antagonists, dose response, selectivity assay for APJ receptor antagonist project, cell-based, uHTS hits (AID 463214); type: functional;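 also: antagonist potency against angiotensin II stimulated AT1 response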
T3 sequence (P30556 whole entry): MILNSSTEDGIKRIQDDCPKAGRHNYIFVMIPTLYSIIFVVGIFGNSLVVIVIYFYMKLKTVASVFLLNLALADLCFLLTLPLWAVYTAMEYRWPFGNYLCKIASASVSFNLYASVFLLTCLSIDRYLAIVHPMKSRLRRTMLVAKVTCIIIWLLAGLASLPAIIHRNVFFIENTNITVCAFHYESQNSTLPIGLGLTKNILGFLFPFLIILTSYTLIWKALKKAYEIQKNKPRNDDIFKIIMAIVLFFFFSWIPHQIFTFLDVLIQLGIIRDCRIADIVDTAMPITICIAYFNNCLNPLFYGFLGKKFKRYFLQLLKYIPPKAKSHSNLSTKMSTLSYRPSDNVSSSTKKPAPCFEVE

Beta-galactosidase = Beta-galactosidase (Escherichia coli, UniProt Q8VNN2); assay: PubChem AID 485352; type: functional
Beta-galactosidase, sequence (Q8VNN2 whole entry): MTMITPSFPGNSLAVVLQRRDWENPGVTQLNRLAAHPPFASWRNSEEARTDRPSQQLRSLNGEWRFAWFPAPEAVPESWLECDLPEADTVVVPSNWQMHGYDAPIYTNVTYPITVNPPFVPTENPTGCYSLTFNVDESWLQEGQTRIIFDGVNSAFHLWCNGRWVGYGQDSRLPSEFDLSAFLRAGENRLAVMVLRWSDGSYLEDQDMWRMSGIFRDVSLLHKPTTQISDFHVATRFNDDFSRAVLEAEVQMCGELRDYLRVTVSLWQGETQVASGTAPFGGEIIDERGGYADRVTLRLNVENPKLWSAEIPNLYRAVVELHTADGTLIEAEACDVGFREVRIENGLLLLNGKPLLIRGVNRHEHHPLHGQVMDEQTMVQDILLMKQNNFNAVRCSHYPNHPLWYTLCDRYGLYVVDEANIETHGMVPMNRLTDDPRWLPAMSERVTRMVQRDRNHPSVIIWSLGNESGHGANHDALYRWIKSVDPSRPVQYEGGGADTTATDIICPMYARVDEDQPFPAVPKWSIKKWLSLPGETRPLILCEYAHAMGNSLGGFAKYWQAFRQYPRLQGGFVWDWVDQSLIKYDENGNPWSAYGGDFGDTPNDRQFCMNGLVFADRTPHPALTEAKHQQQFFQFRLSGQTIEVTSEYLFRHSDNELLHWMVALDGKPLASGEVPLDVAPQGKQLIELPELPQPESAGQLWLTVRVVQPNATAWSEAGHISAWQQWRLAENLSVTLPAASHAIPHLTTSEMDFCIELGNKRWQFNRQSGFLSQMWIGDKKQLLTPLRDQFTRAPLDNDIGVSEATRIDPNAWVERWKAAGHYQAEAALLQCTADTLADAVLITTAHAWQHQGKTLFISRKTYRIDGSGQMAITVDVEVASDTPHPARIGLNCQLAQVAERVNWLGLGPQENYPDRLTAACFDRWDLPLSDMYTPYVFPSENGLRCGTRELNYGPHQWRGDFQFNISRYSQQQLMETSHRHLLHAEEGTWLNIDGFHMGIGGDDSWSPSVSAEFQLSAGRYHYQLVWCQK

Cytochrome P450 1A2 = molecular target: T4, Cytochrome P450 1A2 (Homo sapiens, UniProt P05177);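 also: PubChem cytochrome P450 panel assay, CYP1A2 panel member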
T4 sequence (P05177 whole entry): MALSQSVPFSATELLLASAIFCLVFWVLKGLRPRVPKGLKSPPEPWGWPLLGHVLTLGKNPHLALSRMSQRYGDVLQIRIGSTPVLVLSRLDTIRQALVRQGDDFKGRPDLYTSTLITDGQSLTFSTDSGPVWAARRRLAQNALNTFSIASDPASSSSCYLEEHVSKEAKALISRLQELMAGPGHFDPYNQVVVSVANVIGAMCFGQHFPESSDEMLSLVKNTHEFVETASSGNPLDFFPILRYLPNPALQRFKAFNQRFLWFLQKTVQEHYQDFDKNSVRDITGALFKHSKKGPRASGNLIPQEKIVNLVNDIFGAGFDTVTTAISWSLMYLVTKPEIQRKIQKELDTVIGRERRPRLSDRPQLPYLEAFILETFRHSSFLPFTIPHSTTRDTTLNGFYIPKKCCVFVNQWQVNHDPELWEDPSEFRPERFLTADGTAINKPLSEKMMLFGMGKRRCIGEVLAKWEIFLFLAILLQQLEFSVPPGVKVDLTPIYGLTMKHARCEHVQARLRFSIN

Cytochrome P450 2C9 = Cytochrome P450 2C9 (Homo sapiens, UniProt P11712)
Cytochrome P450 2C9, sequence (P11712 whole entry): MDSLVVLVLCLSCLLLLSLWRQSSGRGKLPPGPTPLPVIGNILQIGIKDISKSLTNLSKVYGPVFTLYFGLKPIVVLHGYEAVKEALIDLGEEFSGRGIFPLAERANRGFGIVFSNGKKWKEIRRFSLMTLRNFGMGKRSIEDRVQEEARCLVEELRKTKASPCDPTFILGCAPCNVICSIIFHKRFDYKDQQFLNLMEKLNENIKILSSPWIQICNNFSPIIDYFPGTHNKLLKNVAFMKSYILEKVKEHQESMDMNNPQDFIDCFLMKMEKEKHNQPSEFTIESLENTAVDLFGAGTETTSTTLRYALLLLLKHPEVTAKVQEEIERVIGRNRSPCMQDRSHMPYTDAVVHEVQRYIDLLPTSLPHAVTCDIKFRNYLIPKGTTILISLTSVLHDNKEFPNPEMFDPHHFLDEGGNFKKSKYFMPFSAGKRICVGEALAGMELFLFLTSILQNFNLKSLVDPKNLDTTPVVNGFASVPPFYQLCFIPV

Cytochrome P450 2C19 = Cytochrome P450 2C19 (Homo sapiens, UniProt P33261); assay: Cytochrome panel assay with activity outcomes. Panel member name: p450-cyp2c19 Compounds with AC50 equal or less than 10 uM are considered active; type: functional; details: read-out: AC50
Cytochrome P450 2C19, sequence (P33261 whole entry): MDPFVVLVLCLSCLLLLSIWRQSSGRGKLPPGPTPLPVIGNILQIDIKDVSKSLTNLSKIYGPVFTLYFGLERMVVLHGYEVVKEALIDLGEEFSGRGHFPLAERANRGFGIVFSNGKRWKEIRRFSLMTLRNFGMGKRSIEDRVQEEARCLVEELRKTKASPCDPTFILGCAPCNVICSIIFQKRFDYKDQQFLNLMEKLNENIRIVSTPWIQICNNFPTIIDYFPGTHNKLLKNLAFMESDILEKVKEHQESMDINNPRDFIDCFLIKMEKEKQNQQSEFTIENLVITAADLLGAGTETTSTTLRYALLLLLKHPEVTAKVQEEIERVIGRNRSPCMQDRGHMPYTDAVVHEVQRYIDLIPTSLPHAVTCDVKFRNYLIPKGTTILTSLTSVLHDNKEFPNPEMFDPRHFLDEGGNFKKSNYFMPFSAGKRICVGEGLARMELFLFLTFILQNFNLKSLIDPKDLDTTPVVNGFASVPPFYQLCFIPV

Cytochrome P450 3A4 = Cytochrome P450 3A4 (Homo sapiens, UniProt P08684);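 also: CYP3A4 tested as one member of a cytochrome P450 panel screen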
Cytochrome P450 3A4, sequence (P08684 whole entry): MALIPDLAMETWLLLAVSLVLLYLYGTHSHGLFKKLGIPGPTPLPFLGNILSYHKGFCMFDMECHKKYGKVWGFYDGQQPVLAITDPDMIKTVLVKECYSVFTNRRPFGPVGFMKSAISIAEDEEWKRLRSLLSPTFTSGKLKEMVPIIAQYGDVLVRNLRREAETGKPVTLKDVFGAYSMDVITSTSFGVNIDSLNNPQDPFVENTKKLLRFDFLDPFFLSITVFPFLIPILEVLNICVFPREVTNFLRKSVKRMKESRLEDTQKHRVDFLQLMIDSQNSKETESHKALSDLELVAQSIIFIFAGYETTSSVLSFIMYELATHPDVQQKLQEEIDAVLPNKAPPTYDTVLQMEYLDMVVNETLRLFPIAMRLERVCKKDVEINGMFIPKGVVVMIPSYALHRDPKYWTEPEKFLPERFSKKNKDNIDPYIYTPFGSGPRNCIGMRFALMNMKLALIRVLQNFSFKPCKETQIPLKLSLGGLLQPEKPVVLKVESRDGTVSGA

[6] = molecular target: T5, Heat shock factor protein 1 (Mus musculus, UniProt P38532); assay: inhibition of MG132-induced HSE-luciferase signal, confirmation, cell-based, NIH3T3, luminescence, dose retest (AID 2382); type: functional;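 also: NIH3T3 fibroblasts with HSF1-driven luciferase reporter stressed by proteasome inhibitor MG132; luminescence from HSF1-driven luciferase expression after 8 hours of MG132 stress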
T5 sequence (P38532 whole entry): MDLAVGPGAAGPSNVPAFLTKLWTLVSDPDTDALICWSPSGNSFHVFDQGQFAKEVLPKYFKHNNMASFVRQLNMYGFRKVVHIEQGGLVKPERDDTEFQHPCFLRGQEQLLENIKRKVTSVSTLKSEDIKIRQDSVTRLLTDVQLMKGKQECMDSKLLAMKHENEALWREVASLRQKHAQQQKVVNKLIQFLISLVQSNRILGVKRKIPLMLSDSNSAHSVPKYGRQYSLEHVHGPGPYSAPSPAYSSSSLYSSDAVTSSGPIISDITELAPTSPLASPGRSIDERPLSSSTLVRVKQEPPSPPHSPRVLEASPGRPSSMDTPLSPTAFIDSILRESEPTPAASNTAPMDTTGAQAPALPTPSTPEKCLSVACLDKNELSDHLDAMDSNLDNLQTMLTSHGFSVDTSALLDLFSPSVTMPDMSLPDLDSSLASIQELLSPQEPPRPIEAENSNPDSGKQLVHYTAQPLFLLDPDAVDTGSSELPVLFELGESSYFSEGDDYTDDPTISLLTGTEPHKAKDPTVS

[7] = molecular target: Luciferin 4-monooxygenase (Photinus pyralis, UniProt P08659); assay: firefly luciferase enzyme inhibitors, dose response, biochemical, luminescence (AID 1891)
Luciferin 4-monooxygenase, sequence (P08659 whole entry): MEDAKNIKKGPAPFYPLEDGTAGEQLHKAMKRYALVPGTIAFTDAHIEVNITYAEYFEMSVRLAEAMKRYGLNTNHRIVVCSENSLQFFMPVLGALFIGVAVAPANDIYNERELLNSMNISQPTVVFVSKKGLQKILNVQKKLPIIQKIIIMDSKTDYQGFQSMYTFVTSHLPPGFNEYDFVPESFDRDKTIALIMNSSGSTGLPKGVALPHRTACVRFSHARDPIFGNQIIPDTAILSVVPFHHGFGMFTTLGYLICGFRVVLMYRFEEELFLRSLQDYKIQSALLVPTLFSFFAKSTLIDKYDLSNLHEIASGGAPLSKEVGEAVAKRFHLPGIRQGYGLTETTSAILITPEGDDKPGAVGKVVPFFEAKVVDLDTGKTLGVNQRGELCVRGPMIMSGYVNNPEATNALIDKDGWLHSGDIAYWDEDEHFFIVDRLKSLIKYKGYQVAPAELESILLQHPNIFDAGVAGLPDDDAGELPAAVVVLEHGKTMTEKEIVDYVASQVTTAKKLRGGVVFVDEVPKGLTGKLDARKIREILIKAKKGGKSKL

[8] = Luminescence Cell-Based Dose Confirmation HTS to Identify Inhibitors of Platelet Dense Granule Release. [Related pubchem assays: 1663 (Primary HTS), 1678 (Summary of Project)]; type: functional
[9] = inhibitors of intracellular T. cruzi replication, confirmation, NIH3T3 host cells, beta-gal luminescence (AID 2044); type: functional, cell-based;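 also: intracellular parasites grown in NIH/3T3 mouse fibroblasts as host cells; luminescent beta-galactosidase reporter signal from transgenic T. cruzi replicating inside host cells; inhibitors lower the luminescence signal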
[10] = cytotoxicity toward NIH3T3 fibroblasts, dose response, counter-screen, cell-based, ATP luminescence, mouse fibroblasts (AID 2010); type: functional;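 also: cells exposed to compound for about 90 hours before reading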
[11] = Luminescence Cell-Based Dose Retest to Confirm Inhibitors of Cancer Stem Cells. [Related pubchem assays (depositor defined):AID2717, AID2721]; type: functional; details: Homo sapiens
BJ [12] = assay: cells; type: functional, cell-based; details: Homo sapiens
BJ [13] = assay: cytotoxicity toward BJ-TERT-LT-ST fibroblasts, dose response, cell-based, RAS-independent, luminescence (AID 1935); type: functional; details: Homo sapiens;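 also: BJ fibroblasts immortalized with TERT plus LT and ST oncogenes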
BJ [14] = assay: cytotoxicity toward BJ-TERT fibroblasts, dose response, cell-based, RAS-independent, luminescence (AID 1933); type: functional; details: Homo sapiens
BJ [15] = assay: cytotoxicity toward Ras-transformed BJeLR fibroblasts, dose response, cell-based, alamar blue fluorescence, cherrypicked samples (AID 2631); type: functional; details: Homo sapiens;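 also: confirmatory dose-response assay in RAS-dependent BJ fibroblasts engineered with TERT, LT and ST, with cytotoxicity read by fluorescence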
[16] = cytotoxicity toward DRD oncogenic fibroblasts, dose response, cell-based, non-viral oncogenic, luminescence (AID 1934); type: functional; details: Homo sapiens
[17] = intracellular Trypanosoma cruzi inhibitors in host cells – cell-based, plate reader, cherry-pick samples, set 3, dose response (AID 651818); type: functional;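 also: compounds incubated with infected cells for about four days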
[18] = Luminescence Cell-Based Dose Response HTS to Identify Inhibitors of 5'UTR Stem-Loop Driven Prion Protein mRNA Translation in H4 Neuroglioblastoma Cells. [Related pubchem assays: 1827 (Project Summary), 1813 (Primary HTS)]; type: functional
P388/ADR = assay: cells; type: functional; details: Mus musculus
P388 = assay: cells; type: functional; details: Mus musculus
[19] = inhibitors of firefly luciferase expression or activity, dose response, H4 neuroglioma cells, luminescence (AID 1990); type: functional, cell-based
[20] = inhibitors of SNCA 5'UTR-driven reporter translation, confirmation, H4 neuroglioma cells, luminescence (AID 1988); type: functional, cell-based
SN12K1 = assay: cells; type: functional; details: Homo sapiens

Cc1cc(C)n(-c2ccc(C(=O)Nc3ccc4c(c3)OCO4)cc2)n1
AC50 [1]: 4.31 µM (active)

Cc1c(Cc2ccccc2)c(=O)oc2c(C)c(OCC(=O)NC[C@H]3CC[C@H](C(=O)O)CC3)ccc12
IC50 [2]: 4.87 µM (active)

Cc1onc(C(=O)Nc2sc3c(c2C#N)CCCC3)c1[N+](=O)[O-]
EC50 [3]: > 75 µM (inactive)
EC50 [4]: 1.59 µM (active)

Cn1c(=O)c(C(=S)NC(=O)C2CC2)c(N)n(Cc2ccccc2)c1=O
IC50 [5]: > 40 µM (not active)
EC50 (Beta-galactosidase): > 40 µM (inactive)

CCOc1c2ccc(C(=O)NCc3ccccc3OC)cc2nn1CC
AC50 (Cytochrome P450 1A2): 17.8 µM (inconclusive)
AC50 (Cytochrome P450 2C9): inconclusive
AC50 (Cytochrome P450 2C19): 39.8 µM (inconclusive)
AC50 (Cytochrome P450 3A4): 15.8 µM (inconclusive)
EC50 [6]: > 195 µM (not active)

N=C1/C(=C/c2cccn2-c2ccc([N+](=O)[O-])cc2)C(=O)N=C2SC=CN12
EC50 [3]: > 160 µM (inactive)
EC50 [4]: 1.33 µM (active)

O=C(Nc1ncc2c(n1)CC(c1ccco1)CC2=O)c1ccco1 (stereo not given)
EC50 [7]: > 112 µM (not active)
AC50 [1]: 6.29 µM (active)
EC50 [8]: > 112 µM (not active)

Cn1cc(-c2nc3cnc(Oc4cccc(Cl)c4)nc3n(CCC#N)c2=O)c2ccccc21
AC50 (Cytochrome P450 1A2): 2.51 µM (inconclusive)
AC50 (Cytochrome P450 2C9): inconclusive
AC50 (Cytochrome P450 3A4): 7.94 µM (inconclusive)

O=C(NNC(=O)c1cc2ccccc2cc1O)NC1CCCCC1
EC50 [3]: > 150 µM (inactive)
EC50 [4]: > 38 µM (not active)

Cc1cc(C)c2sc(N(CCCN(C)C)C(=O)c3ccc(S(=O)(=O)N4CCCc5ccccc54)cc3)nc2c1
EC50 [9]: 0.452 µM (active)
EC50 [10]: 12.2 µM (active)
IC50 [5]: > 40 µM (not active)
AC50 [11]: 4.46 µM (active)
EC50 (Beta-galactosidase): > 40 µM (inactive)

COc1ccc(C(=O)Nc2ccc(Cn3ccnc3)cc2)cc1OC
AC50 [1]: 7.74 µM (active)

O=C(COC(=O)c1cnccn1)c1cccc([N+](=O)[O-])c1
IC50 [5]: 13.6 µM (active)
EC50 (Beta-galactosidase): > 40 µM (inactive)

CCOC(=O)/C=C1\CN(C(C)c2ccccc2)S(=O)(=O)c2ccccc21 (stereo not given)
IC50 [2]: 12.3 µM (active)

Cc1ccc(/C=C(\CCC(=O)O)c2nc3ccccc3s2)cc1[N+](=O)[O-]
AC50 [1]: 0.153 µM (active)

CCc1c(C(=O)NCCc2ccc(OC)c(OC)c2)[nH]c(C)c1C(C)=O
AC50 [1]: 3.74 µM (active)

COc1cccc2sc(Nc3nc(C)c(C(C)=O)s3)nc12
EC50 [9]: 1.82 µM (active)
EC50 [10]: 7.09 µM (active)
IC50 [5]: 23.3 µM (not active)
EC50 (Beta-galactosidase): > 40 µM (inactive)

CCCC(=O)Nc1ccc(C(=O)N/N=C/c2ccc([N+](=O)[O-])o2)cc1
EC50 (BJ [12]): 0.38 µM (active)
EC50 (BJ [13]): 0.534 µM (inconclusive)
EC50 (BJ [14]): 17.2 µM (active)
EC50 (BJ [15]): 0.123 µM (active)
EC50 [16]: 26.5 µM (active)

COc1ccc(S(=O)(=O)Nc2ccc3c(c2)CC(=O)N([C@@H](C)CO)C[C@H](C)[C@H](CN(C)Cc2ccc(C(=O)Nc4ccccc4N)cc2)O3)cc1
AC50 [17]: 3.23 µM (active)

C[C@@H]1CCCCO[C@@H](CN(C)Cc2ccc(Cl)c(Cl)c2)[C@@H](C)CN([C@H](C)CO)C(=O)c2cc(NC(=O)NC3CCCCC3)ccc2O1
AC50 [17]: 5.48 µM (active)

COc1ccc(S(=O)(=O)N(C)C[C@H]2Oc3ccc(NS(=O)(=O)c4ccc(Cl)cc4)cc3CC(=O)N([C@H](C)CO)C[C@H]2C)cc1
AC50 [17]: 4.94 µM (active)

C[C@@H]1CN([C@@H](C)CO)C(=O)Cc2cc(NC(=O)Cc3ccccc3)ccc2O[C@@H]1CN(C)Cc1ccc(Oc2ccccc2)cc1
AC50 [17]: 2.61 µM (active)

C[C@@H]1CCCCO[C@H](CN(C)C(=O)Nc2ccc(C(F)(F)F)cc2)[C@@H](C)CN([C@H](C)CO)C(=O)c2cc(NC(=O)C3CCCCC3)ccc2O1
AC50 [17]: 1.12 µM (active)

C[C@H]1CN([C@@H](C)CO)C(=O)Cc2cc(NC(=O)NC3CCCCC3)ccc2O[C@@H]1CN(C)Cc1ccc(Oc2ccccc2)cc1
AC50 [17]: 6.74 µM (active)

COc1ccc(S(=O)(=O)Nc2ccc3c(c2)CC(=O)N([C@H](C)CO)C[C@@H](C)[C@@H](CN(C)Cc2ccc(C(=O)Nc4ccccc4N)cc2)O3)cc1
AC50 [17]: 2.9 µM (active)

COC(=O)C[C@](O)(CCCC(C)(C)O)C(=O)O[C@@H]1C(OC)=C[C@]23CCCN2CCc2cc4c(cc2[C@H]13)OCO4 [OMACETAXINE MEPESUCCINATE]
EC50 (BJ [15]): 0.00488 µM (active)
EC50 [18]: < 0.1 µM (active)
GI50 (P388/ADR): 0.247 µM (active)
GI50 (P388): 0.00388 µM (active)
EC50 [19]: < 0.1 µM (active)
EC50 [20]: < 0.1 µM (active)
GI50 (SN12K1): 0.0115 µM (active)

Reference: ChEMBL document CHEMBL1201862, “PubChem BioAssay data set” (2004)
